From patent US20170319572A1, “COMBINATION DRUG TREATMENT FOR HEPATITIS C INFECTION” (JANSSEN PHARMACEUTICALS, INC., priority 2015, published 2017)
“Also recorded” adds a separate entry of the source.

Legend:
BCRP = target: T1, BCRP (Homo sapiens, UniProt Q9UNQ0); conditions: cited from earlier work
T1 sequence (Q9UNQ0 1-655): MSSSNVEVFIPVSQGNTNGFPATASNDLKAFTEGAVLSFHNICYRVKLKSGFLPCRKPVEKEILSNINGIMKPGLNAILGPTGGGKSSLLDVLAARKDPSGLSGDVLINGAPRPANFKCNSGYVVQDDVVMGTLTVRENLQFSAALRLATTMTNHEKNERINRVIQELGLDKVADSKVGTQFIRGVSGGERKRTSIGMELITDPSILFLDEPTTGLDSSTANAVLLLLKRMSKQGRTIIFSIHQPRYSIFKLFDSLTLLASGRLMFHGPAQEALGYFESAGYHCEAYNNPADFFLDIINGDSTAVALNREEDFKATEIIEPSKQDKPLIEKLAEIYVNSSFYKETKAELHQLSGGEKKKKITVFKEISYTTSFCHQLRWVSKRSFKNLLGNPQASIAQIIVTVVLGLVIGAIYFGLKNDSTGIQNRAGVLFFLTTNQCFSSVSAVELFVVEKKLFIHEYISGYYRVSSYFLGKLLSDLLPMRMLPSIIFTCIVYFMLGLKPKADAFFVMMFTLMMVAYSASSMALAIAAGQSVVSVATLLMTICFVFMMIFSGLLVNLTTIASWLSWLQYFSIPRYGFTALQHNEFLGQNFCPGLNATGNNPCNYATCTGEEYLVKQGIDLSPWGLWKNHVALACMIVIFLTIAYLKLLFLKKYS

CYP (any CYP) = test: CYP inhibition; conditions: on any CYP
[1] = Drug-drug interaction study in humans (Phase-1, open-label, two-group, fixed-sequence, PK); conditions: for increase of exposure caused by SMV: co-administration of SMV
Protocol: A drug-drug interaction study (DDI) study is a study designed to investigate whether a drug alters the pharmacokinetics of another drug or drugs or their metabolites.
Compound (III)—Subjects received 800 mg of Compound (III) once daily from Days 1-3, Days 11-13, and Days 21-23. PK blood samples for determination of Compound (III) and metabolite concentrations were collected in reference to the Day 3, Day 13, and Day 23 doses.
Simeprevir—Subjects received 150 mg of Simeprevir (SMV) once daily from Days 4-23. PK blood samples for determination of SMV concentrations were collected in reference to the Day 10, Day 13, Day 20, and Day 23 doses.
Odalasvir—Subjects received a loading dose of 150 mg on Day 14, and 50 mg of Odalasvir once daily from Days 15-23. PK blood samples for determination of Odalasvir concentrations were collected in reference to the Day 20 and Day 23 doses.
Compound (III)—Subjects received 800 mg of Compound (III) once daily from Days 1-3, Days 11-13 and Days 21-23. PK blood samples for determination of Compound (III) and metabolite concentrations were collected in reference to the Day 3, Day 13, and Day 23 doses.
Simeprevir—Subjects receive 150 mg of SMV once daily from Days 4-23. PK blood samples for determination of SMV concentrations were collected in reference to the Day 20 and Day 23 doses.
Odalasvir—Subjects receive a loading dose of 150 mg on Day 4, and 50 mg of Odalasvir once daily from Days 5-23. PK blood samples for determination of Odalasvir concentrations were collected in reference to the Day 10, Day 13, Day 20, and Day 23 doses.
This drug-drug interaction study was intended to assess the safety and tolerability of the described drug combinations at pre-defined time points throughout the study. Study completion/follow-up visit(s) were performed 7 and 28 days after completion of the last study assessment.
A primary objective was to evaluate the effect of multiple oral doses of Odalasvir (alone), Simeprevir (alone), and Odalasvir and Simeprevir on the multiple oral dose PK of Compound (III) (and certain metabolites thereof, such as the major metabolites in systemic circulation) in healthy volunteers. Other objectives were to evaluate the safety and tolerability of multiple oral doses of Compound (III) when administered alone and in combination with single and multiple oral doses of Odalasvir and/or Simeprevir in healthy volunteers; to determine the potential effect of Compound of Compound (III) and/or Odalasvir on the steady-state PK of Simeprevir in healthy volunteers; to determine the potential effect of Compound of Compound (III) and/or Simeprevir on the steady state PK of Odalasvir in healthy volunteers.
Various other PK parameters were estimated including: Clast, t1/2, Tmax, Tlast, CL/F, Vz/F, and λz.
The following daily doses were employed:
Odalasvir: 150 mg loading dose; 50 mg for the remainder of the study period.

OATP1B1 = target: T2, OATP1B1 (Homo sapiens, UniProt Q9Y6L6); conditions: cited from earlier work
T2 sequence (Q9Y6L6 1-691): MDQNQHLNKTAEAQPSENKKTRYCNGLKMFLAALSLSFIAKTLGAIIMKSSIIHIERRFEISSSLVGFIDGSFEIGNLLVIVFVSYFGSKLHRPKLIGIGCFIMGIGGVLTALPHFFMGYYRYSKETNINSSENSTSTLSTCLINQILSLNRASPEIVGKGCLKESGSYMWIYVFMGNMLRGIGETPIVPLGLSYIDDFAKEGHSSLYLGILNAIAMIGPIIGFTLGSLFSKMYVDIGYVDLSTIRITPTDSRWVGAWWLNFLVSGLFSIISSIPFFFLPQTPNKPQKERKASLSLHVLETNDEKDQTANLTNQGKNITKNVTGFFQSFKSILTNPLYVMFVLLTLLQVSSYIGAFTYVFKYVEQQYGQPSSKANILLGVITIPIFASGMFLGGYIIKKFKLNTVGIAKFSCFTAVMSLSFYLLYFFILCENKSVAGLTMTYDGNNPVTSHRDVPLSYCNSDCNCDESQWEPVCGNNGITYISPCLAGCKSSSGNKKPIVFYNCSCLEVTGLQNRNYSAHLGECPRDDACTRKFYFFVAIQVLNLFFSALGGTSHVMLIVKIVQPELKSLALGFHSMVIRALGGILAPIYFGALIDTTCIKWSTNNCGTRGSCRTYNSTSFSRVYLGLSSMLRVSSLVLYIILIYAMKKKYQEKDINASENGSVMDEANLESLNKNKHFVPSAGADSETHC

Compound | inhibition of BCRP (BCRP) | CYP inhibition potential (CYP (any CYP)) | increase of exposure caused by Odalasvir ([1]; DDI study, co-administration of Odalasvir) | increase of exposure caused by SMV ([1]; DDI study) | Cmax ([1]; Group 1, Day 13, Compound (III) 800 mg QD + SMV 150 mg QD) | Cmax ([1]; Group 1, Day 23, Compound (III) 800 mg + SMV 150 mg + ODV 50 mg QD) | Cmax ([1]; Group 2, Day 3, Compound (III) 800 mg QD alone) | Cmax ([1]; Group 2, Day 13, (Compound (III) + SMV) as printed in Table 1) | Cmax ([1]; Group 2, Day 23, Compound (III) 800 mg + SMV 150 mg + ODV 50 mg QD) | increase of exposure in the combination ([1]; both, human, in vivo) | Cmax ([1]; healthy volunteers, Group 1, Day 3, Compound (III) 800 mg QD alone) | bioavailability with SMV and ODV co-administered compared to Compound (III) alone ([1]; human subjects) | inhibition of OATP1B1 (OATP1B1) | increase of exposure, effect of the three Compounds ([1]; DDI study, Compound (III) + SMV + Odalasvir together) | effect of Compound (III) on exposure/bioavailability ([1]; DDI study, co-administration of Compound (III)) | increase of exposure in the combination ([1]; human in vivo study (Example 1), three drugs combined) | increase of exposure by SMV ([1]; human subjects)
CC(C)OC(=O)[C@H](C)N[P@](=O)(OC[C@@]1(F)O[C@@H](n2ccc(=O)[nH]c2=O)[C@](C)(O)[C@@H]1O)Oc1ccccc1 [Compound (III), isopropyl ((S)-(((2S,3S,4R,5R)-5-(2,4-dioxo-3,4-dihydropyrimidin-1 (2H)-yl)-2-fluoro-3,4-dihydroxy-4-methyltetrahydrofuran-2-yl)methoxy)(phenoxy)phosphoryl)-L-alaninate] | no in vitro inhibition | limited CYP inhibition potential | 4 × | 3 × | 376.2 ng/mL | 746.6 ng/mL | 150.7 ng/mL | 515.9 ng/mL | 949.6 ng/mL | 7-8 times | 161.6 ng/mL | approximately 8 fold | no in vitro inhibition | – | – | – | –
COC(=O)N[C@H](C(=O)N1[C@H](c2nc3cc(-c4cc5ccc4CCc4ccc(c(-c6ccc7[nH]c([C@@H]8C[C@@H]9CCCC[C@@H]9N8C(=O)[C@@H](NC(=O)OC)C(C)C)nc7c6)c4)CC5)ccc3[nH]2)C[C@@H]2CCCC[C@@H]21)C(C)C [ODV, methyl [(2S)-1-[(2S,3aS,7aS)-2-[6-[11-[2-[(2S,3aS,7aS)-1-[(2S)-2-[(methoxycarbonyl)amino]-3-methylbutanoyl]octahydro-1H-indol-2-yl]-1H-benzimidazol-6-yl]tricyclo[8.2.2.2^4,7]hexadeca-1(12),4,6,10,13,15-hexaen-5-yl]-1H-benzimidazol-2-yl]octahydro-1H-indol-1-yl]-3-methyl-1-oxobutan-2-yl]carbamate] | no inhibition | does not inhibit cytochrome P450 enzymes; also recorded: does not inhibit CYP450 activity | – | 1.6 × | – | – | – | – | – | – | – | – | no inhibition | 1.5 × | no apparent effect; also recorded: does not alter the bioavailability | 1.5 times | 1.6 fold
